Experimental data taken from article PMC10321483 (Chemical Science, 2023).
“And” between values parts separate entries of the source, which are not always exact repeats. Equal entries are not always repeated. Where two headings read alike, the source gives them in different places.

How the values were obtained:
LdtMt2 [1] = target: T1, LdtMt2 (Mycobacterium tuberculosis, UniProt I6Y9J2); test: biochemical; type: binding; parameters: made in house; host or cells: E. coli; settings: for ΔTm at 500 µM: read-out: ΔTm: difference in melting point of LdtMt2 relative to unreacted LdtMt2 (43.8 °C)
Experimental: LdtMt2 (5 μM) was incubated with the inhibitor (500 μM) in assay buffer (50 mM tris pH 7.5) for 30 minutes at room temperature in 96-well white PCR plates (25 μL final volume, Starlab). SYPRO Orange (final concentration 6×, according to manufacturer's definition, Invitrogen) was then added and the plate was sealed using a transparent plastic film (Polyolefin StarSeal, Starlab). Fluorescence was monitored (with λex = 492 nm and λem = 610 nm) using a CFX96 Touch Real-Time PCR Detection System (Bio-Rad), while the temperature was increased from 20 to 95 °C in increments of 0.2 °C. Melting temperatures (Tms) were determined using the CFX Maestro Software (Bio-Rad).

LdtMt2 [2] = target: T1, LdtMt2; test: Rate constant of covalent target inactivation (kinact/KI), endpoint competition assay with probe 2; type: biochemical; parameters: made in house; host or cells: E. coli
LdtMt2 [3] = target: T1, LdtMt2; test: biochemical; type: biochemical; parameters: made in house; host or cells: E. coli; settings: for IC50: Table S5 HTS hits, 30 minute inhibitor pre-incubation, two independent repeats, read-out: pIC50 LdtMt2 (converted)
BlaC = target: T2, BlaC (Mycobacterium tuberculosis, UniProt P9WKD3); test: BlaC fluorogenic inhibition assay with FC5 (dose-response); type: biochemical; settings: Table S5 HTS hits, 30 minute inhibitor pre-incubation, two independent repeats
T2 construct: made in house; host or cells: E. coli
Experimental: Two types of controls were used. […] In control 2, the BlaC mixture was substituted with the assay buffer. This mixture was incubated for 30 minutes at room temperature without shaking. […] Data were analysed using ActivityBase (IDBS).

[4] = 5 µM LdtMt2, 500 µM inhibitor, SYPRO Orange, 50 mM Tris pH 7.5
[5] = 100 nM LdtMt2, 10 µM probe 2, 3 h incubation, n=4
[6] = 100 nM LdtMt2, 10 µM probe 2, 3 h incubation, n=4, read-out: kinact/KI

T2 sequence (P9WKD3 35-307): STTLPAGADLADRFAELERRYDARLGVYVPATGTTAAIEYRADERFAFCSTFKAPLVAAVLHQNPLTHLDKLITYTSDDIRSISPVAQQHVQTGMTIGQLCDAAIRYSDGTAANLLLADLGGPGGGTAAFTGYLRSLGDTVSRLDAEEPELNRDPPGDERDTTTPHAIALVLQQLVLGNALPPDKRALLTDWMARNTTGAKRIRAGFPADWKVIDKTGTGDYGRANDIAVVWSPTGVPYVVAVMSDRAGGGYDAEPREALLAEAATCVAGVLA
T1 sequence (I6Y9J2 56-408): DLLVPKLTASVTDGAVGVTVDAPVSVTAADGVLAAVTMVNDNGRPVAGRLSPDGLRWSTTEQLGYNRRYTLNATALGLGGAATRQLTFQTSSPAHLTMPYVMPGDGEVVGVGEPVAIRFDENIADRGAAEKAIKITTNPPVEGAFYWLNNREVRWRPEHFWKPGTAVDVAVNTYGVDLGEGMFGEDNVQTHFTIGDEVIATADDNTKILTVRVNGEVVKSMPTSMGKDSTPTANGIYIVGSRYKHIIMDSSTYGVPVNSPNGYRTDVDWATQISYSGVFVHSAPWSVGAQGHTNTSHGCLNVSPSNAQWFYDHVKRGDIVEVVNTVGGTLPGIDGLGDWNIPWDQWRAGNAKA

Compound | ΔTm at 500 µM (LdtMt2 [1]) [°C] | LE (ligand efficiency) (LdtMt2 [3]; Table S5, for LdtMt2) | IC50 (LdtMt2 [3]) | ΔTm: difference in melting point of LdtMt2 relative to unreacted LdtMt2 (43.8 °C) (LdtMt2 [1]) | kinact/KI (LdtMt2 [2]; [5]) [M⁻¹ s⁻¹] | LE (ligand efficiency) (LdtMt2 [3]) | Tm: melting point of LdtMt2 after pre-incubation with the compound (LdtMt2 [1]; pH 7.5, in °C (unit assumed)) | also measured
CCC(C)C(NC(=O)OCc1ccccc1)C(=O)CCl (stereo not drawn) [Compound 2] | -0.1 | 0.56 | 0.0776 µM | – | – | – | – | Tm: melting point of LdtMt2 after pre-incubation with the compound (LdtMt2 [1]; [4]): 43.7 ± 0.09 °C; kinact/KI (LdtMt2 [2]): 68.4 ± 3.5 M⁻¹ s⁻¹; IC50 (BlaC; pIC50 BlaC): > 100 µM
O=C1C=CC(=O)N1c1ccccc1 [Compound 3] | 1.2 | 0.86 | 0.0708 µM | – | – | – | – | Tm: melting point of LdtMt2 after pre-incubation with the compound (LdtMt2 [1]; [4]): 45.0 ± 0.16 °C; kinact/KI (LdtMt2 [2]): 3990 ± 356 M⁻¹ s⁻¹; IC50 (BlaC; pIC50 BlaC): 9.33 µM
CS(=O)(=O)c1ccc(F)c(N2C(=O)C=CC2=O)c1 [Compound 4] | 1.8 | 0.62 | 0.0871 µM | – | – | – | – | Tm: melting point of LdtMt2 after pre-incubation with the compound (LdtMt2 [1]; [4]): 45.6 ± 0.28 °C; kinact/KI (LdtMt2 [2]): 36.5 ± 7.9 M⁻¹ s⁻¹; IC50 (BlaC; pIC50 BlaC): 60.3 µM
CC(C)(C)OC(=O)Nc1ccc(N2C(=O)C=CC2=O)cc1 [Compound 6] | – | – | – | +1.7 °C | 127 ± 7.7 | 0.52 | – | Tm: melting point of LdtMt2 after pre-incubation with the compound (LdtMt2 [1]; pH 7.5): 45.5 ± 0.09 °C
COc1cccc(NC(=O)/C(Cl)=C(\Cl)S(=O)(=O)Cc2ccccc2Cl)n1 [Compound 8] | 0.7 | 0.43 | 0.0692 µM | – | – | – | – | kinact/KI (LdtMt2 [2]): 91.6 ± 2 M⁻¹ s⁻¹; IC50 (BlaC; pIC50 BlaC): > 100 µM
Cc1ccc(C=CC(=O)Nc2ccc(S(N)(=O)=O)cc2)o1 [Compound 9] | – | – | – | – | 90.7 ± 4.7 | 0.53 | – | Tm: melting point of LdtMt2 after pre-incubation with the compound (LdtMt2 [1]; pH 7.5): 43.1 ± 0.09 °C
Cc1ccc(C=CC(=O)Nc2ccccc2C(N)=O)o1 [Compound 11] | – | – | – | +0.2 | 172 ± 6.0 | 0.56 | 44.0 ± 0.16 | pIC50 BlaC (BlaC): < 4.0
NC(=O)C=CC(=O)Nc1ccc(Cl)cc1 [Compound 13] | 1 | 0.75 | 0.417 µM | – | – | – | – | Tm: melting point of LdtMt2 after pre-incubation with the compound (LdtMt2 [1]; [4]): 44.8 ± 0.00 °C; kinact/KI (LdtMt2 [2]; [6]): 6.48 ± 0.11 M⁻¹ s⁻¹; IC50 (BlaC; pIC50 BlaC): > 100 µM
Cn1c(SCC2=C(C(=O)O)N3C(=O)[C@@H](NC(=O)COc4ccccc4)[C@H]3SC2)n[nH]c1=O [Compound 19] | -0.9 | 0.35 | 2.4 µM and 2.4 to 2.82 µM | – | – | – | – | Tm: melting point of LdtMt2 after pre-incubation with the compound (LdtMt2 [1]; [4]): 42.9 ± 0.09 °C; IC50 (BlaC; read-out: pIC50 BlaC (converted)): > 100 µM
COc1ccc(COC(=O)C2N3C(=O)C(Br)C3S(=O)(=O)C2(C)C)cc1 (stereo not drawn) [Compound 21] | – | – | – | -0.7 | 53.2 ± 4.7 | 0.45 | 43.1 ± 0.09 | –
N#Cn1c(-c2ccc(F)cc2C(F)(F)F)nc2ccccc21 [Compound 22] | -1.3 | 0.51 | 0.0295 µM | – | – | – | – | Tm: melting point of LdtMt2 after pre-incubation with the compound (LdtMt2 [1]; [4]): 42.5 ± 0.09 °C; kinact/KI (LdtMt2 [2]): 55.1 ± 3 M⁻¹ s⁻¹; IC50 (BlaC; pIC50 BlaC): > 100 µM
N#Cn1c(-c2ccnnc2)nc2ccccc21 [Compound 24] | – | – | – | – | 158 ± 5.7 | 0.66 | 42.0 ± 0.00 | pIC50 BlaC (BlaC): < 4.0
N#Cn1c(-c2cncnc2)nc2ccccc21 [Compound 25] | – | – | – | – | 77.5 ± 6.0 | 0.66 | – | pIC50 BlaC (BlaC): < 4.0
N#Cn1c(-c2ccc3nccnc3c2)nc2ccccc21 [Compound 26] | – | – | – | -2.1 | 65.0 ± 4.4 | 0.53 | 41.7 ± 0.09 | lowered the melting temperature of LdtMt2 by (LdtMt2 [1]): 2.1 °C
N#Cn1c(N2CCSCC2)nc2ccccc21 [Compound 27] | – | – | – | -1.3 | – | 0.66 | 42.5 ± 0.09 | pIC50 BlaC (BlaC): < 4.0
N#Cn1c(N2CCOCC2)nc2ccccc21 [Compound 28] | – | – | – | -1.5 | – | 0.66 | 42.3 ± 0.09 | pIC50 BlaC (BlaC): < 4.0
N#Cn1c(-c2ccc(-c3nccs3)cc2)nc2ccccc21 [Compound 29] | – | – | – | -0.9 | 1164 ± 105 | 0.51 | 42.9 ± 0.19 | –
N#Cn1c(-c2cnc(-c3cccs3)nc2)nc2ccccc21 [Compound 31] | -1.7 | 0.51 | 0.0479 µM | – | – | – | – | Tm: melting point of LdtMt2 after pre-incubation with the compound (LdtMt2 [1]; [4]): 42.1 ± 0.10 °C; kinact/KI (LdtMt2 [2]; [6]): 609 ± 11 M⁻¹ s⁻¹; IC50 (BlaC; pIC50 BlaC): 11.2 µM
N#Cn1c(-c2ccc(OC3CCOCC3)cc2)nc2ccccc21 [Compound 32] | – | – | – | -1.5 | 86.3 ± 2.6 | 0.47 | 42.3 ± 0.09 | –
N#Cn1c(-c2ccncc2)nc2ccc(-c3ccco3)cc21 [Compound 33] | – | – | – | -0.5 | 71.8 ± 1.1 | 0.51 | 43.3 ± 0.09 | –
N#Cn1c(-c2ccncc2)nc2ccc(-c3ccncc3)cc21 [Compound 34] | – | – | – | -1.7 | 68.4 ± 2.7 | 0.49 | 42.1 ± 0.09 | pIC50 BlaC (BlaC): < 4.0
N#CN1CCCN1C(=O)OCc1ccc(Cl)c(Cl)c1 [Compound 37] | – | – | – | -1.5 | 8.44 ± 1.2 | 0.59 | 42.3 ± 0.09 | –
CNC(C)C(=O)NC1CCN(c2ccc(N3CCCC3)cc2C#N)C1 (stereo not drawn) [Compound 38] | – | – | – | -1.0 | – | 0.45 | 42.8 ± 0.00 | pIC50 BlaC (BlaC): < 4.0
O=C1OC2(c3ccc(O)cc3Oc3cc(OS(=O)(=O)c4ccc([N+](=O)[O-])cc4[N+](=O)[O-])ccc32)c2ccccc21 (stereo not drawn) [probe 2, reference compound] | – | – | – | – | – | – | – | (kinact/KI)probe (LdtMt2 [2]; from kobs, LdtMt2 100 nM, probe 2 100 nM to 10 μM): 39.8 M⁻¹ s⁻¹
